Structures can show the parent of a compound that is named as a salt.
Columns and labels:
[1] = tested on: rgRSV224 virus; test: Antiviral activity: rgRSV224 (GFP) replication in HeLa cells; assay type: cell-based, respiratory syncytial virus (RSV); conditions: human respiratory syncytial virus, HeLa, 72 h, read-out: RSV HELA pEC50, rgRSV224 virus (MOI=1), HeLa cells, GFP expression, three days post-virus exposure (converted)
Protocol: Black 384-well clear-bottom microtiter plates (Corning, Amsterdam, The Netherlands) were filled via acoustic drop ejection using the echo liquid handler (Labcyte, Sunnyvale, Calif.), 200 nL of compound stock solutions (100% DMSO) were transferred to the assay plates, 9 serial 4-fold dilutions of compound were made, creating per quadrant the same compound concentration. The assay was initiated by adding 10 μL of culture medium to each well (RPMI medium without phenol red, 10% FBS-heat inactivated, 0.04% gentamycin (50 mg/mL). All addition steps are done by using a multidrop dispenser (Thermo Scientific, Erembodegem, Belgium). Next, rgRSV224 virus (MOI=1) diluted in culture medium was added to the plates, rgRSV224 virus is an engineered virus that includes an additional GFP gene (Hallak L K, Spillmann D. Collins P L, Peeples M E.
(§1) Glycosaminoglycan sulfation requirements for respiratory syncytial virus infection; Journal of virology (2000), 74(22), 10508-13) and was in-licensed from the NIH (Bethesda, Md., USA). Finally, 20 μL of a HeLa cell suspension (3,000 cells/well) were plated. Medium, virus- and mock-infected controls were included in each test. The wells contain 0.05% DMSO per volume. Cells were incubated at 37° C. in a 5% CO2 atmosphere. Three days post-virus exposure, viral replication was quantified by measuring GFP expression in the cells by an in house developed MSM laser microscope (Tibotec. Beerse, Belgium). The EC50 was defined as the 50% inhibitory concentration for GFP expression. In parallel, compounds were incubated for three days in a set of white 384-well microtiter plates (Corning) and the cytotoxicity of compounds in HeLa cells was determined by measuring the ATP content of the cells using the ATPlite kit (PerkinElmer, Zaventem, Belgium) according to the manufacturer's instructions. The CC50 was defined as the 50% concentration for cytotoxicity.

[2] = Cytotoxicity in HeLa cells (ATP content, ATPlite kit); assay type: cell-based; conditions: human, three days incubation, read-out: TOX HELA pCC50 (converted)
Protocol: as §1

SMILES | melting point | EC50 [1] | CC50 at 3 days [2]
c1cnc(-c2cccc3[nH]ccc23)c(N2CCN(c3ccncc3)CC2)c1 | 262 °C |  | 
COCCCn1c(-c2ncccc2N2CCN(c3ccncc3)CC2)cc2ccccc21 (as salt: fumarate) | 168 °C |  | 
CC(=O)c1cccc(-c2nccnc2N2CCN(c3ccccc3)CC2)c1 [Compound 1] | 172.56 °C | 955 nM | 2290 nM
c1ccc(-c2ncccc2N2CCN(c3ccncc3)CC2)cc1 [Compound 2] | 204.15 °C | 603 nM | 1120 nM
Clc1cccc(-c2ncccc2N2CCN(c3ccncc3)CC2)c1 [Compound 3] |  | 550 nM | > 100000 nM
COc1ccc(-c2ncccc2N2CCN(c3ccncc3)CC2)cc1 [Compound 5] |  | 427 nM | > 100000 nM
Fc1cccc(-c2nccnc2N2CCN(c3ccccc3)CC2)c1 [Compound 6] | 139.51 °C | 575 nM | > 100000 nM
c1cc(N2CCN(c3nccnc3-c3ccc4occc4c3)CC2)ccn1 [Compound 7] |  | 871 nM | > 97700 nM
CC(=O)c1cccc(-c2ncccc2N2CCN(c3ccccc3)CC2)c1 [Compound 8] | 175.94 °C | 646 nM | > 100000 nM
c1cnc(-c2ccc3c(c2)OCO3)c(N2CCN(c3ccncc3)CC2)c1 [Compound 9] | 187.8 °C | 692 nM | > 100000 nM
c1cnc(-c2ccc3ccccc3c2)c(N2CCN(c3ccncc3)CC2)c1 [Compound 10] | 162.05 °C | 79.4 nM | 39800 nM
Clc1ccc(-c2ncccc2N2CCN(c3ccncc3)CC2)cc1Cl [Compound 11] | 159.5 °C | 269 nM | 28200 nM
Fc1cccc(-c2ncccc2N2CCN(c3ccncc3)CC2)c1 [Compound 12] | 184.88 °C | 871 nM | > 100000 nM
Fc1ccc(-c2ncccc2N2CCN(c3ccncc3)CC2)cc1 [Compound 13] | 173.62 °C | 603 nM | > 89100 nM
Clc1ccc(-c2ncccc2N2CCN(c3ccncc3)CC2)c(Cl)c1 [Compound 14] |  | 186 nM | 40700 nM
Clc1ccc(-c2ncccc2N2CCN(c3ccncc3)CC2)cc1 [Compound 15] |  | 309 nM | 891 nM
COc1ccc(-c2ncccc2N2CCN(c3ccncc3)CC2)cc1OC [Compound 16] |  | 977 nM | > 100000 nM
COc1ccc(-c2ncccc2N2CCN(c3ccncc3)CC2)cn1 [Compound 17] | 138 °C | 437 nM | > 97700 nM
COc1cc(-c2ncccc2N2CCN(c3ccncc3)CC2)ccn1 [Compound 18] |  | 832 nM | > 97700 nM
CC(C)Oc1ccc(-c2ncccc2N2CCN(c3ccncc3)CC2)cn1 [Compound 19] |  | 525 nM | 19100 nM
c1cnc(-c2ccncc2)c(N2CCN(c3ccncc3)CC2)c1 [Compound 20] | 166 °C | 871 nM | > 100000 nM
c1cnc(-c2cc3ccccc3s2)c(N2CCN(c3ccncc3)CC2)c1 [Compound 21] | 224 °C | 204 nM | 10500 nM
c1cnc(-c2ccc3c(c2)OCCO3)c(N2CCN(c3ccncc3)CC2)c1 [Compound 22] | 88 °C | 537 nM | 398 nM
c1cnc(-c2cc3ccccc3o2)c(N2CCN(c3ccncc3)CC2)c1 [Compound 23] | 252 °C | 58.9 nM | > 50100 nM
Cn1ccc2cc(-c3ncccc3N3CCN(c4ccncc4)CC3)ccc21 [Compound 24] | 197 °C | 72.4 nM | 46800 nM
FC(F)(F)Oc1ccc(-c2ncccc2N2CCN(c3ccncc3)CC2)cc1 [Compound 25] | 176 °C | 871 nM | 33100 nM
c1cnc(-c2cccc3ccccc23)c(N2CCN(c3ccncc3)CC2)c1 [Compound 26] | 90 °C | 85.1 nM | 7410 nM
c1cnc(-c2ccc3occc3c2)c(N2CCN(c3ccncc3)CC2)c1 [Compound 27] | 192 °C | 135 nM | 74100 nM

SMILES | melting point | EC50 [1] | CC50 at 3 days [2]
N#Cc1ccc(-c2ncccc2N2CCN(c3ccncc3)CC2)cc1 [Compound 28] |  | 589 nM | > 100000 nM
COc1cc(N2CCN(c3cccnc3-c3ccccc3)CC2)ccn1 [Compound 29] |  | 123 nM | 257 nM
c1cnc(-c2ccc3c(c2)CCO3)c(N2CCN(c3ccncc3)CC2)c1 [Compound 30] | 200 °C | 603 nM | 1700 nM
c1cnc(-c2cccc3ncccc23)c(N2CCN(c3ccncc3)CC2)c1 [Compound 31] | 96 °C | 724 nM | > 97700 nM
Clc1cc(N2CCN(c3cccnc3-c3ccccc3)CC2)ccn1 [Compound 32] | 122 °C | 105 nM | 135 nM
c1cnc(-c2cnc3ccccc3c2)c(N2CCN(c3ccncc3)CC2)c1 [Compound 33] | 182 °C | 219 nM | > 100000 nM
CN(C)c1ccc(-c2ncccc2N2CCN(c3ccncc3)CC2)cc1 [Compound 34] |  | 295 nM | 74100 nM
CSc1ccc(-c2ncccc2N2CCN(c3ccncc3)CC2)cc1 [Compound 35] | 160 °C | 117 nM | 45700 nM
c1cnc(-c2ccc3[nH]ccc3c2)c(N2CCN(c3ccncc3)CC2)c1 [Compound 36] | 252 °C | 79.4 nM | 44700 nM
CCn1ccc2cc(-c3ncccc3N3CCN(c4ccncc4)CC3)ccc21 [Compound 37] | 110 °C | 30.9 nM | 21900 nM
c1cnc(-c2coc3ccccc23)c(N2CCN(c3ccncc3)CC2)c1 [Compound 38] | 210 °C | 132 nM | 44700 nM
c1cnc(-c2cccc3cc[nH]c23)c(N2CCN(c3ccncc3)CC2)c1 [Compound 39] | 162 °C | 851 nM | 55000 nM
Cn1c(-c2ncccc2N2CCN(c3ccncc3)CC2)cc2ccccc21 [Compound 40] |  | 25.1 nM | 53700 nM
Cn1ccc2ccc(-c3ncccc3N3CCN(c4ccncc4)CC3)cc21 [Compound 41] | 174.57 °C | 11.5 nM | 49000 nM
CS(=O)(=O)Nc1ccc(-c2ncccc2N2CCN(c3ccncc3)CC2)cc1 [Compound 42] | 248 °C | 501 nM | > 100000 nM
Cn1ccc2c(-c3ncccc3N3CCN(c4ccncc4)CC3)cccc21 [Compound 43] | 170 °C | 30.2 nM | 45700 nM
N#CCCn1ccc2ccc(-c3ncccc3N3CCN(c4ccncc4)CC3)cc21 [Compound 48] |  | 166 nM | > 100000 nM
N#CCCn1ccc2cc(-c3ncccc3N3CCN(c4ccncc4)CC3)ccc21 [Compound 51] |  | 74.1 nM | 55000 nM
CC1CN(c2cccnc2-c2ccc3ccn(C)c3c2)CCN1c1ccncc1 (stereo not drawn) [Compound 52] |  | 13.5 nM | 44700 nM
c1ccc(Cc2nccnc2N2CCN(c3ccncc3)CC2)cc1 [Compound 53] |  | 3390 nM | 75900 nM
c1cnc(-c2ccc(C3CCCCC3)cc2)c(N2CCN(c3ccncc3)CC2)c1 [Compound 61] |  | 832 nM | 3470 nM
COc1ccc(C(O)(c2ccc(OC)cc2)c2ncccc2N2CCN(c3ccncc3)CC2)cc1 [Compound 64] |  | 50.1 nM | > 93300 nM
Cn1cc(-c2ccc(-c3ncccc3N3CCN(c4ccncc4)CC3)cc2)cn1 [Compound 66] |  | 933 nM | 70800 nM
Cn1nccc1-c1ccc(-c2ncccc2N2CCN(c3ccncc3)CC2)cc1 [Compound 67] |  | 407 nM | 97700 nM
COc1ccc(C(O)c2ncccc2N2CCN(c3ccncc3)CC2)cc1 (stereo not drawn) [Compound 71] |  | 39800 nM | > 100000 nM
COc1ccc(C(C)(O)c2ncccc2N2CCN(c3ccncc3)CC2)cc1 (stereo not drawn) [Compound 72] |  | 525 nM | > 100000 nM
OC1(c2ccccc2)CCN(c2ncccc2N2CCN(c3ccncc3)CC2)CC1 [Compound 73] |  | 631 nM | 63100 nM
